According to patent US20050004179A1, “Methods and materials for treating, detecting, and reducing the risk of developing Alzheimer's Disease” (priority 2003, published 2005):

Experiments:
Tg2576 mice [1] = assay: Insulin response: insulin-induced decline in blood glucose levels; type: in vivo, mouse
Source text: (§1) Male Tg2576 mice and non-transgenic littermates were purchased from Taconic Farms (Germantown, N.Y.). The Tg2576 mice overexpress the 695-isoform of the human amyloid precursor protein containing a double mutation originally identified in a large Swedish kindred (familial AD); spatial learning and memory deficits are evident at 9-11 months of age, prior to the formation of mature amyloid plaques (Kawarabayashi et al., “Age-Dependent Changes in Brain, CSF, and Plasma Amyloid β Protein in the Tg2576 Transgenic Mouse Model of Alzheimer's Disease,” J. Neurosci., 21:372-381 (2001) and Westerman et al., “The Relationship Between Aβ and Memory in the Tg2576 Mouse Model of Alzheimer's Disease.,” J. Neurosci., 22:1858-1867 (2002), which are hereby incorporated by reference). Mice were individually housed in ventilated microisolator cages.
Insulin was administered and glucose was measured using the following procedures. A stock of human insulin (recombinant, 28.7 U.S.P. units/mg; Sigma) was prepared by dissolving 1 mg of powder in 1 ml of dH20 containing 1% glacial acetic acid. A 1:150 dilution in dH20 was used as the injection stock. Mice were administered the insulin solution by intraperitoneal injection. […]
Insulin was administered to non-fasted Tg2576 and wild-type mice at 0.75 U/kg, and blood glucose levels were monitored. […]

Tg2576 mice [2] = assay: Spatial learning and memory, 8-arm radial maze; details: 15 weeks on drug-supplemented diet, approximately 4 mg/kg/day, FIG. 6
Tg2576 mice [3] = type: in vivo
Source text: as §1
The following supplemented diet was used. Tablets of rosiglitazone maleate (Avandia™, GlaxoSmithKline) were provided by the Creighton University Diabetes Center. The tablets were pulverized and mixed with the AIN-93G purified rodent diet at a final dose of 30 mg/kg of food (Dyets, Inc.). […]

[4] = Body weights and food consumption on rosiglitazone-supplemented diet (tolerability); type: in vivo, mouse
Source text: as §1
The following supplemented diet was used. Tablets of rosiglitazone maleate (Avandia™, GlaxoSmithKline) were provided by the Creighton University Diabetes Center. The tablets were pulverized and mixed with the AIN-93G purified rodent diet at a final dose of 30 mg/kg of food (Dyets, Inc.). This dose was chosen based on the results of studies in rats using a diet supplemented with rosiglitazone (Diep et al., “Structure, Endothelial Function, Cell Growth, and Inflammation in Blood Vessels of Angiotensin II-Infused Rats: Role of Peroxisome Proliferator-Activated Receptor-γ,” Circulation, 105:2296-2302 (2002), which is hereby incorporated by reference. Unmodified AIN-93G pellets were purchased as the control diet (Dyets, Inc.). The mice were placed on the diets at 9 months of age.
To provide evidence for a relationship between insulin resistance and aberrant stress responses of Tg2576 mice, the animals were subjected to a diet containing the thiazolidinedione, rosiglitazone, in order to increase insulin sensitivity. The thiazolidinediones act as agonists of peroxisome proliferator-activated receptor-γ (“PPARγ”), which is a ligand-inducible transcription factor that regulates glucose and lipid metabolism (Desvergne et al., “Peroxisome Proliferator-Activated Receptors: Nuclear Control of Metabolism,” Endocr. Rev., 20:649-688 (1999), which is hereby incorporated by reference). The agonists of PPARγ attenuate insulin resistance by improving peripheral insulin sensitivity, and such agonists are currently being used clinically in the management of type 2 diabetes (Wagstaff et al., “Rosiglitazone: A Review of its Use in the Management of Type 2 Diabetes Mellitus,” Drugs 62:1805-1837 (2002), which is hereby incorporated by reference). […] More particularly, the following Table 1 summarizes body weights and food consumption for wild-type mice on the regular diet (Wt; n=7), Tg2576 mice on the diet supplemented with rosiglitazone maleate (Tr, AV; n=7), and for Tg2576 mice on the regular diet (Tr, C; n=5). Data are reported as means and standard deviations for the indicated weeks.

Tg2576 mice [5] = assay: Stress response: serum corticosterone after overnight fasting; type: in vivo, mouse; details: FIG. 5
Source text: as §1
Corticosterone and insulin were measured using the following procedures. For serum preparation, tail bleedings were carried out under a heating lamp, and the blood was collected into MICROTAINER™ Brand Tubes (Becton Dickinson, Franklin Lanes, N.J.). After allowing the blood to clot for 30-40 min, samples were centrifuged for 90 sec at 6000 g and stored at −80° C. until use. Serum corticosterone levels were measured using an enzyme immunoassay kit (Assay Designs, Inc., Ann Arbor, Mich.) with a 1 μl aliquot of each sample diluted 1:100 with assay buffer. The sensitivity of the assay was 26.99 pg/ml. Serum insulin levels were determined using the Ultra Sensitive Rat Insulin ELISA kit (Crystal Chem, Inc., Downers Grove, Ill.) using 5 μl of undiluted sample and mouse insulin standard. The sensitivity of the assay under these conditions was 100 pg/ml. All samples were measured in duplicate for both assays. Plates were read using the Bio-Tek ELx800UV Universal Microplate Reader.
The following supplemented diet was used. Tablets of rosiglitazone maleate (Avandia™, GlaxoSmithKline) were provided by the Creighton University Diabetes Center. […]

[6] = 10-month-old Tg2576 mice, supplemented diet 4 weeks

**Q.** What does the source list for CN(CCOc1ccc(CC2SC(=O)NC2=O)cc1)c1ccccn1.O=C(O)/C=C\C(=O)O (centres unmarked) [rosiglitazone, rosiglitazone maleate]?
**A.** Insulin response of Tg2576 mice on unsupplemented diet versus Tg2576 mice on supplemented diet (Tg2576 mice [1]; 10-month-old Tg2576 mice, 4 weeks on diet, insulin 0.75 U/kg): much weaker insulin response; Effect on insulin response (figure legend) (Tg2576 mice [1]; FIGS. 4A and 4B, Tg2576 mice, supplemented diet for 4 weeks): normalizes the insulin response; Number of reference memory errors versus control Tg2576 mice (Tr,C) (Tg2576 mice [2]): fewer than the number of reference memory errors made by Tg2576 not given the drug; Number of reference memory errors versus wild-type mice (Tg2576 mice [2]): as many reference memory errors as the wild-type mice; Deaths in the course of the study (Tg2576 mice [3]; 7 Tg2576 mice on rosiglitazone-supplemented diet (2 of 7 on unsupplemented diet died)): None; Observed behaviour on handling (Tg2576 mice [3]; Tg2576 mice on rosiglitazone-supplemented diet): calmer and easier to handle; Tolerability of the diet containing rosiglitazone ([4]; mice, diet 30 mg/kg of food): well tolerated; Amount of rosiglitazone-supplemented food consumed over time ([4]; mouse, in vivo): decreased over time; Weight of mice, Week 1 ([4]; mouse, in vivo): 26.3 ± 3.2 g; Weight of mice, Week 4 ([4]; mouse, in vivo): 26.2 ± 3.1 g; Weight of mice, Week 7 ([4]; mouse, in vivo): 27.1 ± 3.3 g; Serum corticosterone levels after overnight fasting versus wild-type mice (Tg2576 mice [5]; [6]): not significantly different; Serum corticosterone levels following overnight fasting versus Tg2576 mice on regular diet (Tg2576 mice [5]; [6]): well below the levels reached in Tg2576 mice on the regular diet; Effect on stress response (figure legend) (Tg2576 mice [5]; Tg2576 mice): normalizes the stress response
